Measurements from patent US20100267561A1, “HERBICIDAL PYRIDAZINONE DERIVATIVES” (priority 2007, published 2010).

Columns and labels:
Type in all cases: in vivo
[1] = tested on: tropical (T.) spiderwort (Commelina benghalensis); assay: Test E pre-/postemergence plant response; conditions: scale 0 to 100
Outline: (§1)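 Visual rating 0–100 vs untreated controls (0 = no effect, 100 = complete control) after 14–21 d greenhouse. Pre- and postemergence treatments; compound in non-phytotoxic solvent mix + surfactant. Post plants 2–18 cm, 1- to 4-leaf stage.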

canola (Brassica rapa) = assay: Test C pre-/postemergence plant response
Outline: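 Seeds are planted and sprayed preemergence, while established plants at the 1- to 4-leaf stage (2 to 18 cm) receive postemergence sprays of the same surfactant-containing, non-phytotoxic solvent formulation. After 15 to 25 days under controlled conditions, injury is scored visually from 0 (no effect) to 100 (complete control).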

[2] = tested on: Russian thistle (Salsola kali); assay: Test E pre-/postemergence plant response; conditions: Preemergence, scale 0 to 100
Outline: as §1

[3] = tested on: common sowthistle (Sonchus oleraceous); assay: Test E pre-/postemergence plant response; conditions: scale 0 to 100
Outline: as §1

[4] = tested on: Virginia (V.) dayflower (Commelina virginica); assay: Test E pre-/postemergence plant response; conditions: scale 0 to 100
Outline: as §1

kochia (Kochia scoparia) = assay: Test E pre-/postemergence plant response; conditions: Preemergence, scale 0 to 100
Outline: as §1

[5] = tested on: prickly sida (Sida spinosa); assay: Test E pre-/postemergence plant response; conditions: scale 0 to 100
Outline: as §1

[6] = Preemergence, 8 g ai/ha, scale 0 to 100 (0 no effect, 100 complete control)
[7] = Preemergence, 16 g ai/ha, scale 0 to 100 (0 no effect, 100 complete control)
[8] = Preemergence, 31 g ai/ha, scale 0 to 100 (0 no effect, 100 complete control)
[9] = Preemergence, 62 g ai/ha, scale 0 to 100, 0 no effect, 100 complete control

COC(=O)Oc1cnn(C)c(=O)c1-n1nc(-c2ccc(Cl)cc2)cc1C [Compound 33]
0: Plant response rating, Spiderwort, T. ([1]; 16 g ai/ha, Preemergence) | Plant response rating, Spiderwort, T. ([1]; 31 g ai/ha, Preemergence) | Plant response rating, Spiderwort, T. ([1]; 62 g ai/ha, Preemergence) | Plant response rating, Spiderwort, T. ([1]; Postemergence, 8 g ai/ha) | Plant response rating, Spiderwort, T. ([1]; Postemergence, 16 g ai/ha) | Plant response rating, Spiderwort, T. ([1]; Postemergence, 62 g ai/ha) | Plant response rating, Canola (canola (Brassica rapa); [6]) | Plant response rating, Canola (canola (Brassica rapa); [7]) | Plant response rating, Canola (canola (Brassica rapa); [8]) | Plant response rating, Canola (canola (Brassica rapa); [9])

Cc1cc(-c2ccc(Cl)cc2)nn1-c1c(OC(=O)C(C)C)cnn(C)c1=O [Compound 34]
0: Plant response rating, Thistle, Russian ([2]; 16 g ai/ha) | Plant response rating, Thistle, Russian ([2]; 31 g ai/ha) | Plant response rating, Thistle, Russian ([2]; 62 g ai/ha) | Plant response rating, Sowthistle ([3]; 16 g ai/ha, Preemergence) | Plant response rating, Sowthistle ([3]; 31 g ai/ha, Preemergence) | Plant response rating, Sowthistle ([3]; 62 g ai/ha, Preemergence) | Plant response rating, Sowthistle ([3]; Postemergence, 8 g ai/ha) | Plant response rating, Sowthistle ([3]; Postemergence, 16 g ai/ha) | Plant response rating, Sowthistle ([3]; Postemergence, 31 g ai/ha) | Plant response rating, Sowthistle ([3]; Postemergence, 62 g ai/ha) | Plant response rating, Dayflower, V. ([4]; 16 g ai/ha, Preemergence) | Plant response rating, Dayflower, V. ([4]; 31 g ai/ha, Preemergence) | Plant response rating, Dayflower, V. ([4]; 62 g ai/ha, Preemergence) | Plant response rating, Dayflower, V. ([4]; Postemergence, 8 g ai/ha) | Plant response rating, Dayflower, V. ([4]; Postemergence, 16 g ai/ha) | Plant response rating, Dayflower, V. ([4]; Postemergence, 31 g ai/ha) | Plant response rating, Dayflower, V. ([4]; Postemergence, 62 g ai/ha) | Plant response rating, Kochia (kochia (Kochia scoparia); 16 g ai/ha) | Plant response rating, Kochia (kochia (Kochia scoparia); 31 g ai/ha) | Plant response rating, Kochia (kochia (Kochia scoparia); 62 g ai/ha) | Plant response rating, Prickly Sida ([5]; 16 g ai/ha, Preemergence) | Plant response rating, Prickly Sida ([5]; 31 g ai/ha, Preemergence) | Plant response rating, Prickly Sida ([5]; 62 g ai/ha, Preemergence) | Plant response rating, Prickly Sida ([5]; Postemergence, 8 g ai/ha) | Plant response rating, Prickly Sida ([5]; Postemergence, 16 g ai/ha) | Plant response rating, Prickly Sida ([5]; Postemergence, 31 g ai/ha) | Plant response rating, Prickly Sida ([5]; Postemergence, 62 g ai/ha) | Plant response rating, Canola (canola (Brassica rapa); [6]) | Plant response rating, Canola (canola (Brassica rapa); [7]) | Plant response rating, Canola (canola (Brassica rapa); [8]) | Plant response rating, Canola (canola (Brassica rapa); [9])

Cc1cc(-c2ccc(Cl)cc2)nn1-c1c(OS(C)(=O)=O)cnn(C)c1=O [Compound 36]
0: Plant response rating, Spiderwort, T. ([1]; 16 g ai/ha, Preemergence) | Plant response rating, Spiderwort, T. ([1]; 31 g ai/ha, Preemergence) | Plant response rating, Spiderwort, T. ([1]; 62 g ai/ha, Preemergence) | Plant response rating, Spiderwort, T. ([1]; Postemergence, 8 g ai/ha) | Plant response rating, Spiderwort, T. ([1]; Postemergence, 16 g ai/ha) | Plant response rating, Spiderwort, T. ([1]; Postemergence, 31 g ai/ha) | Plant response rating, Spiderwort, T. ([1]; Postemergence, 62 g ai/ha)

CCc1cc(-c2ccc(Cl)cc2)nn1-c1c(OS(C)(=O)=O)cnn(C)c1=O [Compound 39]
0: Plant response rating, Spiderwort, T. ([1]; 16 g ai/ha, Preemergence) | Plant response rating, Spiderwort, T. ([1]; 31 g ai/ha, Preemergence) | Plant response rating, Spiderwort, T. ([1]; 62 g ai/ha, Preemergence) | Plant response rating, Spiderwort, T. ([1]; Postemergence, 8 g ai/ha) | Plant response rating, Spiderwort, T. ([1]; Postemergence, 16 g ai/ha) | Plant response rating, Spiderwort, T. ([1]; Postemergence, 31 g ai/ha) | Plant response rating, Spiderwort, T. ([1]; Postemergence, 62 g ai/ha)

CCc1cc(-c2ccc(Cl)cc2)nn1-c1c(OC(=O)C(C)(C)C)cnn(C)c1=O [Compound 40]
0: Plant response rating, Spiderwort, T. ([1]; 16 g ai/ha, Preemergence) | Plant response rating, Spiderwort, T. ([1]; 31 g ai/ha, Preemergence) | Plant response rating, Spiderwort, T. ([1]; 62 g ai/ha, Preemergence) | Plant response rating, Spiderwort, T. ([1]; Postemergence, 8 g ai/ha) | Plant response rating, Spiderwort, T. ([1]; Postemergence, 16 g ai/ha) | Plant response rating, Spiderwort, T. ([1]; Postemergence, 31 g ai/ha) | Plant response rating, Spiderwort, T. ([1]; Postemergence, 62 g ai/ha)

CCc1cc(-c2ccc(Cl)cc2)nn1-c1c(OC(=O)OC(C)C)cnn(C)c1=O [Compound 41]
0: Plant response rating, Canola (canola (Brassica rapa); [6]) | Plant response rating, Canola (canola (Brassica rapa); [7]) | Plant response rating, Canola (canola (Brassica rapa); [8]) | Plant response rating, Canola (canola (Brassica rapa); [9])

Cc1cc(-c2ccc(Cl)cc2)nn1-c1c(OC(=O)OCC(C)C)cnn(C)c1=O [Compound 57]
0: Plant response rating, Canola (canola (Brassica rapa); Postemergence, 8 g ai/ha, scale 0 to 100, 0 no effect, 100 complete control) | Plant response rating, Canola (canola (Brassica rapa); Postemergence, 16 g ai/ha, scale 0 to 100, 0 no effect, 100 complete control) | Plant response rating, Canola (canola (Brassica rapa); Postemergence, 31 g ai/ha, scale 0 to 100, 0 no effect, 100 complete control) | Plant response rating, Canola (canola (Brassica rapa); Postemergence, 62 g ai/ha, scale 0 to 100, 0 no effect, 100 complete control) | Plant response rating, Canola (canola (Brassica rapa); [6]) | Plant response rating, Canola (canola (Brassica rapa); [9])
